Experiment [1] concerns Kv3 channels in FS neurons. Description: Whole-cell voltage clamp of Kv3 delayed rectifier currents in acutely dissociated FS neurons. The class given is cell-based, rat. An excerpt:
(§1) Tissue preparation. […] Hippocampal interneurons and GP were identified as CaMKII negative, GAD67 and parvalbumin positive neurons by single cell RT-PCR detection of corresponding mRNAs following physiology experiments (see below).
(§2) Electrophysiology. Whole-cell recordings used standard techniques^27,28. The internal solution consisted of (in mM): 30-90 K2SO4, 0-60 N-methyl-D-glucamine, 2 MgCl2, 40 HEPES, 5 EGTA, 12 phosphocreatine, 2 Na2ATP, 0.2 Na3GTP, and 0.1 leupeptin, pH 7.2 with H2SO4 (osmolarity 260-270 mOsm/l). The external solution consisted of (in mM): 140 Na-isethionate, 2 KCl, 4 MgCl2, 10 HEPES, 12 glucose and 0.001 TTX, pH 7.35 with NaOH (osmolarity 295-305 mOsm/l). The internal solution for current clamp recordings consisted of (in mM) 110 potassium methylsulphate, 2 MgCl2, 40 HEPES, 5 EGTA, 12 phosphocreatine, 2 Na2ATP, 0.2 Na3GTP, and 0.1 leupeptin, pH 7.2 with H2SO4 (osmolarity 260-270 mOsm/l). In the case of current clamp recordings, TTX was omitted from external solution. For the recordings in the presence of Ca^+2 ions EGTA was omitted from internal solution and 4 mM of MgCl2 was substituted by 2 mM of CaCl2 and 2 mM of MgCl2. All drugs were obtained from Sigma (St. Louis, […]) except BDS-I that was obtained from Alomone Labs (Jerusalem, Israel). Solutions were applied by gravity fed sewer pipe system. Recordings were obtained with Axon Instruments 200 patch-clamp amplifier and controlled and monitored with a PC running pClamp software (version 7.0) (Axon Instruments Inc., Union City, Calif.). […] After seal rupture, series resistance (2-10 MΩ) was compensated (75-90%) and periodically monitored. […] Activation data were fit with a Boltzmann equation of the form: 1/(1+exp ((Vh−V)/Vc), V stands for membrane potential. In the case of Kv3.4a current, an estimate of peak current was obtained by single exponential fit of decay phase extrapolated to the start of test pulse. In all other instances the voltage dependence of the currents was obtained from the amplitude of tail currents measured following 200 msec long voltage steps. […]

Another experiment deals with FS neurons. Description: Current clamp recording of spiking in FS neurons. Format: cell-based, rat.
Description: as §1, §2

The test system of experiment [2] is Inward rectifier K+ channels. To be noted: cited from earlier work.
The target in the next experiment is T1, Kv3.1 channel (Rattus norvegicus, UniProt P25122).
T1 sequence (P25122 1-585): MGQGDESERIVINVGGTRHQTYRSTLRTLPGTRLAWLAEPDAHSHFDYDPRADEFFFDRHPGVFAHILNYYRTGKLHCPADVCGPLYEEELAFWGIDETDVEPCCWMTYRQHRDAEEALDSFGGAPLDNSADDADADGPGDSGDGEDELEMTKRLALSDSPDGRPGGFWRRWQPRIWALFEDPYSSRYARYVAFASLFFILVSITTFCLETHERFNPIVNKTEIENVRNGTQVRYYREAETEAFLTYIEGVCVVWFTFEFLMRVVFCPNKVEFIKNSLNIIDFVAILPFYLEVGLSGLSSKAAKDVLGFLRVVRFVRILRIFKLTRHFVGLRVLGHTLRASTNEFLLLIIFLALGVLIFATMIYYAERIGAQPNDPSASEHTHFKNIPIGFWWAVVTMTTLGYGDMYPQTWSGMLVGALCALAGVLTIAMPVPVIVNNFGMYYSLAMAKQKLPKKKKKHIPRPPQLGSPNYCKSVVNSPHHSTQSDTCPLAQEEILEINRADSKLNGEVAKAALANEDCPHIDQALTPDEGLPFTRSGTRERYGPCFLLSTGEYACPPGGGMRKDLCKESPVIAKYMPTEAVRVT
Conditions: low micromolar concentrations; cited from earlier work.

We go through 1 substance from US7629323B2, “Manipulation of neuronal ion channels” (Northwestern University, priority 2003, dated 2009).

Chain of Kv3 channels in FS neurons (Q63734 1-608 limits assumed): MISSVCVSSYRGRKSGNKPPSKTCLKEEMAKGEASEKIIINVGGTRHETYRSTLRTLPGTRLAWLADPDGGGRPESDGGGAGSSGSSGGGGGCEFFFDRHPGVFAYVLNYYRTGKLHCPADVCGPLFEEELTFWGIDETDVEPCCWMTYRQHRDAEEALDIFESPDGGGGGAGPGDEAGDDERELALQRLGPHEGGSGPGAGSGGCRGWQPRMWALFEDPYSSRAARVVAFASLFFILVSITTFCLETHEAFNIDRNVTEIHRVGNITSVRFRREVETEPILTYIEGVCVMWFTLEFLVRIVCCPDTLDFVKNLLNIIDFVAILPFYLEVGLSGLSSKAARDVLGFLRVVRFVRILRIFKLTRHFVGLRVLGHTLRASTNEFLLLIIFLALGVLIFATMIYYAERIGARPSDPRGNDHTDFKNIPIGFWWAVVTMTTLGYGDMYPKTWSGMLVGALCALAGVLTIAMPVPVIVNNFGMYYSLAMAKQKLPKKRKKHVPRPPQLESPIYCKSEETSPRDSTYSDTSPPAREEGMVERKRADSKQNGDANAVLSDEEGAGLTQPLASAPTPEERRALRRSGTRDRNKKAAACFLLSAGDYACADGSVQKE

For “BDS-I (AAPCFCSGKPGRGDLWILRGTCPGGYGYTSNCYKWPNICCYPH)”, in experiment [1], the “block of TEA-sensitive, Kv3 channel currents in FS neurons” value is given as “efficiently blocked”; the “effect on delayed rectifier currents evoked by depolarization in FS neurons” value is “slowed the rising phase of delayed rectifier currents evoked by depolarization and reduced their amplitude”. In addition, in experiment [1] (at +20 mV), the “time for substantial unblocking of channels containing Kv3.4 subunits” value is on record as “more than 5 msec”. Besides, the “change in the rate of rise in the spike” value with FS neurons is on record as “no obvious change”. Also, the “increase of duration of spikes in FS neurons” value with FS neurons (BDS-I 2 μM, extracellular Ca2+ 2 mM, n=4) is given as 53+13%. Moreover, the “rate of repetitive spiking evoked by sustained current injection” value in the experiment on FS neurons (with and without extracellular Ca2+) is “slowed”. In experiment [2], the “sensitivity of inward rectifier K+ channels” value is listed as “insensitive”. In addition, in the experiment with Kv3.1 channel, the “effects on Kv3.1 channel currents” value is given as “only minor effects”.
